From US8026269B2, “Isoindoline compounds and methods of making and using the same” (Celgene Corporation, priority 2004, dated 2011)

| SMILES | melting point [°C] |
| --- | --- |
| CCOc1cc([C@@H](CC(=O)N(C)C)N2Cc3cccc(NC(=O)N(C)C)c3C2=O)ccc1OC [Example 15, (3R)-3-(7-(3,3-Dimethyl-ureido)-1-oxo-1,3-dihydro-isoindol-2-yl}-3-(3-ethoxy-4-methoxy-phenyl)-N,N-dimethyl-propionamide] | 105 to 107 |
| CCOc1cc([C@@H](CS(C)(=O)=O)N2Cc3cccc(NCC4CC4)c3C2=O)ccc1OC [Example 4, (1S)-7-(Cyclopropylmethyl-amino)-2-[1-(3-ethoxy-4-methoxyphenyl)-2-methanesulfonyl-ethyl]-2,3-dihydro-isoindol-1-one] | 147 to 149 |
| CCOc1cc([C@@H](CS(C)(=O)=O)N2Cc3cccc(NC(=O)N(C)C)c3C2=O)ccc1OC [Example 16, (1S)-3-{2-[1-(3-Ethoxy-4-methoxy-phenyl)-2-methanesulfonyl-ethyl]-3-oxo-2,3-dihydro-1H-isoindol-4-yl}-1,1-dimethyl-urea] | 170 to 172 |
| COc1ccc(C(CS(C)(=O)=O)N2C(=O)c3cccc(NC(C)=O)c3C2=O)cc1OCC1CC1 (centres unmarked) [Example 13, N-{2-[1-(3-Cyclopropylmethoxy-4-methoxy-phenyl)-2-methanesulfonyl-ethyl]-1,3-dioxo-2,3-dihydro-1H-isoindol-4-yl}-acetamide] | 102 to 104 |
| CCOc1cc([C@@H](CS(C)(=O)=O)N2C(=O)c3cccc(NC(=O)c4ccco4)c3C2=O)ccc1OC [Example 2, (1S)-Furan-2-carboxylic Acid {2-[1-(3-ethoxy-4-methoxyphenyl)-2-methanesulfonyl-ethyl]-1,3-dioxo-2,3-dihydro-1H-isoindol-4-yl}-amide] | 184 to 186 |
| CCOc1cc([C@@H](CC(=O)N(C)C)N2Cc3cccc(NCC(C)(C)C)c3C2=O)ccc1OC [Example 6, (3R)-3-[7-(2,2-Dimethyl-propylamino)-1-oxo-1,3-dihydro-isoindol-2-yl]-3-(3-ethoxy-4-methoxyphenyl)-N,N-dimethyl-propionamide] | 111 to 113 |
| CCOc1cc([C@@H](CS(C)(=O)=O)N2Cc3cccc(NCC(C)C)c3C2=O)ccc1OC [Example 5, (1S)-2-[1-(3-Ethoxy-4-methoxyphenyl)-2-methanesulfonyl-ethyl]-7-isobutylamino-2,3-dihydro-isoindol-1-one] | 122 to 124 |

Results, then the compound that gave them:

| melting point [°C] | SMILES |
| --- | --- |
| 163 to 165 | CCOc1cc(C(CC#N)N2C(=O)c3ccc(NC(N)=O)cc3C2=O)ccc1OC (centres unmarked) [Example 11] |
| 179 to 181.5 | CCOc1cc(C(CC#N)N2C(=O)c3cccc(NC(N)=O)c3C2=O)ccc1OC (centres unmarked) [Example 12] |
| 163 to 165 | CCOc1cc(C(CC#N)N2C(=O)c3ccc4ccccc4c3C2=O)ccc1OC (centres unmarked) [Example 1, 3-(1,3-Dioxobenzo[e]isoindolin-2-yl)-3-(3-ethoxy-4-methoxyphenyl)propanenitrile] |
| 151 to 153 | CCOc1cc([C@@H](CS(C)(=O)=O)N2C(=O)c3cccc(NC(=O)COC)c3C2=O)ccc1OC [Example 3, (1S)—N-{2-[1-(3-ethoxy-4-methoxyphenyl)-2-methanesulfonyl-ethyl]-1,3-dioxo-2,3-dihydro-1H-isoindol-4-yl}-2-methoxy-acetamide] |
